In ChEMBL document CHEMBL5150044, “Macrocyclization of Quinazoline-Based EGFR Inhibitors Leads to Exclusive Mutant Selectivity for EGFR L858R and Del19” (J Med Chem, 2022) one finds IC50, ΔTm and inhibition data, which are given here for one compound.

Experiment [1] addresses Epidermal growth factor receptor (Homo sapiens, UniProt P00533, L858R).
Experiment [2] deals with Epidermal growth factor receptor (Homo sapiens, UniProt P00533).
In experiment [3] the test system is BaF3. As to the kind of experiment: cells. Type of experiment: functional, cell-based. Particulars: Mus musculus, BaF3, 72 h.
Experiment [4] relates to BaF3. As to the kind of experiment: cells. Type of experiment: functional, cell-based. Particulars: Mus musculus, BaF3, 72 h. This is another data set of the same source.
The target in experiment [5] is T1, Dual specificity tyrosine-phosphorylation-regulated kinase 2 (Homo sapiens) (UniProt Q92630).
T1 sequence (whole entry): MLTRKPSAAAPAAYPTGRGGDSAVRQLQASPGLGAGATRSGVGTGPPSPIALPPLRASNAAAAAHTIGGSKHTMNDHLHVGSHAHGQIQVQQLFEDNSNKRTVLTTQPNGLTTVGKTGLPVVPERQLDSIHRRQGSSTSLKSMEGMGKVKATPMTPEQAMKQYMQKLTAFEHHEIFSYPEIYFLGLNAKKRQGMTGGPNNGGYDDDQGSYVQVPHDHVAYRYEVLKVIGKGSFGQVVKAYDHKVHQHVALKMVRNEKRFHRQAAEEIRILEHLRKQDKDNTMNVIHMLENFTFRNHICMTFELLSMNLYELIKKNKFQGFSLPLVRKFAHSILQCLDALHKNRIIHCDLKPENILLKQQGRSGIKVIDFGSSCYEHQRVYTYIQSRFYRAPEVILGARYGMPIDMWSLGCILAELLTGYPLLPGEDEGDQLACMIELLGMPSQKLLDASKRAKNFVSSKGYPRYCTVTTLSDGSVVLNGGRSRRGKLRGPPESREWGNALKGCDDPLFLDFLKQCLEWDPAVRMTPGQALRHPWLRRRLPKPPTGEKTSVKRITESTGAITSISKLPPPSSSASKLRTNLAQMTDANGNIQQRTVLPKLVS
As to the kind of experiment: Binding affinity to recombinant DYRK2 (unknown origin) assessed as change in melting temperature 10 uM by differential scanning fluorimetry. (Differential scanning fluorimetry follows unfolding on heating by fluorescence.)

Experiment [6] concerns the target RAC-alpha serine/threonine-protein kinase (Mus musculus) (UniProt P31750). As to the kind of experiment: Inhibition of AKT phosphorylation in mouse BaF3 cells harboring Del19 mutant assessed as […] phosphorylation at 10 to 1000 nM incubated for 8 hrs by Western blot analysis. Type of experiment: cell-based. Particulars: dose 10-1000 nM. A general note: In western blotting, separated proteins are transferred to a membrane and probed.

The target in experiment [7] is Mitogen-activated protein kinase 1 and 3 (ERK2 and ERK1) (Mus musculus) (UniProt P63085+Q63844). As to the kind of experiment: Inhibition of ERK1/2 phosphorylation in mouse BaF3 cells harboring Del19 mutant assessed as ERK1/2 phosphorylation at 10 to 1000 nM incubated for 8 hrs by Western blot analysis. Type of experiment: cell-based. To be noted: dose 10-1000 nM.

Experiment [8] deals with Dual specificity tyrosine-phosphorylation-regulated kinase 1A (Homo sapiens) (UniProt Q13627). As to the kind of experiment: Binding affinity to recombinant DYRK1 (unknown origin) assessed as change in melting temperature 10 uM by differential scanning fluorimetry.
The target of experiment [9] is T2, Serine/threonine-protein kinase 17A (Homo sapiens) (UniProt Q9UEE5).
T2 sequence (whole entry): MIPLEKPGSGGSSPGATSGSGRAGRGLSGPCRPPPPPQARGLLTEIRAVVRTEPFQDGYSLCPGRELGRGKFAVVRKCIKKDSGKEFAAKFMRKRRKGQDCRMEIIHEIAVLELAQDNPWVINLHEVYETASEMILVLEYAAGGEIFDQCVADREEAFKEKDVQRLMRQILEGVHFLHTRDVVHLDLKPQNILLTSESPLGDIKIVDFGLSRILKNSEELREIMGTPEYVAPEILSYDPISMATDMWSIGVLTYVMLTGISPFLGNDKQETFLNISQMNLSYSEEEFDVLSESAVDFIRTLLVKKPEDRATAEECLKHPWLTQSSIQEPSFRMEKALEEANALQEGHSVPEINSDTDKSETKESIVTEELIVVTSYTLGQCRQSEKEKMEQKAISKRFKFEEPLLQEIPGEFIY
As to the kind of experiment: Binding affinity to recombinant STK17A (unknown origin) assessed as change in melting temperature 10 uM by differential scanning fluorimetry.

Calls of active or inactive are those of the source. No cut-off for these calls is given here. Some results are limits rather than exact numbers.

Chain of Mitogen-activated protein kinase 1 and 3 (ERK2 and ERK1) (Mus musculus) (P63085 whole entry, looked up): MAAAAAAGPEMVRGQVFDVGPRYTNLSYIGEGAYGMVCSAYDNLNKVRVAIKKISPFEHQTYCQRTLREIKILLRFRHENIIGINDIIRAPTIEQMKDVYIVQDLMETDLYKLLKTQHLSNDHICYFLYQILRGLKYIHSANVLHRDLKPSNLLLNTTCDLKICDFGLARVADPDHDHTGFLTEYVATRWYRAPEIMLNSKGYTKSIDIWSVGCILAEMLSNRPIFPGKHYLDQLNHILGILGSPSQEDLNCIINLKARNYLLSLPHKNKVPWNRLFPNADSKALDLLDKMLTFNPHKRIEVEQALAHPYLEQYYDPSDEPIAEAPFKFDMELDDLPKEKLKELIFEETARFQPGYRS
Chain of Mitogen-activated protein kinase 1 and 3 (ERK2 and ERK1) (Mus musculus) (Q63844 whole entry, looked up): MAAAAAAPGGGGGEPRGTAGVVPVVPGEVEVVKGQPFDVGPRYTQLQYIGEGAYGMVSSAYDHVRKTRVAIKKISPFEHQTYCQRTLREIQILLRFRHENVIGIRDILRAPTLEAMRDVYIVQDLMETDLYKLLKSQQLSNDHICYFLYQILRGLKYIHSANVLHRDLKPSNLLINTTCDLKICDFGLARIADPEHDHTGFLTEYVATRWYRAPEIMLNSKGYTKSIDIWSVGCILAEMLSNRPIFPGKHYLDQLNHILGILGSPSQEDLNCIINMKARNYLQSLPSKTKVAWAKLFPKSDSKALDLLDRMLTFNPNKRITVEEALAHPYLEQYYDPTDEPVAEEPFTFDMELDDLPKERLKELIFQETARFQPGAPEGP
Chain of Epidermal growth factor receptor (Homo sapiens, UniProt P00533) (P00533 whole entry): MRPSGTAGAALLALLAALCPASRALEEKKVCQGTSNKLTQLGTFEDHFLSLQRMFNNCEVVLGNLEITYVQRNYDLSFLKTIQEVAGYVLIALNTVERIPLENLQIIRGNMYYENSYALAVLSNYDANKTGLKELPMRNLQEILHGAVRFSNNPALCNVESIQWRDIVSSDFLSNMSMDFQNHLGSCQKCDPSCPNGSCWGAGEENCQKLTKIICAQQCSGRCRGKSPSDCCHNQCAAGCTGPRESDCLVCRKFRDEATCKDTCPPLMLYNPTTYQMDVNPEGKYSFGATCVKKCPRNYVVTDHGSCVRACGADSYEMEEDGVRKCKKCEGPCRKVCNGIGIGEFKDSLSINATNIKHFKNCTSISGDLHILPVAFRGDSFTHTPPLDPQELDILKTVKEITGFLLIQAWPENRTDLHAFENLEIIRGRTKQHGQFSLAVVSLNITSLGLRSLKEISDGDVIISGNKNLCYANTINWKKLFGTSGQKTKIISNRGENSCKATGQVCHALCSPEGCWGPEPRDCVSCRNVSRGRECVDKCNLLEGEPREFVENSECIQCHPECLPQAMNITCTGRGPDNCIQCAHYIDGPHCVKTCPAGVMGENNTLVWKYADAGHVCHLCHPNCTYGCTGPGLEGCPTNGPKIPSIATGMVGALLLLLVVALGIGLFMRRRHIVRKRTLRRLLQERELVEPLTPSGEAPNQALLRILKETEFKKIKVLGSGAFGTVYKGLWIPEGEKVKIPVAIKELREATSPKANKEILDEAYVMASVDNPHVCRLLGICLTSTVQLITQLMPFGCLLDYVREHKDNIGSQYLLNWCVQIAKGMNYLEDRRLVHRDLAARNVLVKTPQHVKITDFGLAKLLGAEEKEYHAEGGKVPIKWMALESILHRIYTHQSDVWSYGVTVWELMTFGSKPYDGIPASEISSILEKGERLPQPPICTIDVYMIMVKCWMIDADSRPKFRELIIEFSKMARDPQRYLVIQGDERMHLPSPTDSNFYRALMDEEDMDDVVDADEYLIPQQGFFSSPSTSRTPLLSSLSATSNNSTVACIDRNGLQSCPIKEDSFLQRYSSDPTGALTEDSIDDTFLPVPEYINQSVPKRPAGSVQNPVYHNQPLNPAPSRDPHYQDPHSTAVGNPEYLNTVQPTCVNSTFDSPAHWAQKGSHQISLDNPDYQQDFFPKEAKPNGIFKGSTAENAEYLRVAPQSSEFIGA
Chain of Epidermal growth factor receptor (Homo sapiens, UniProt P00533, L858R) (P00533 25-1210 L858R limits assumed): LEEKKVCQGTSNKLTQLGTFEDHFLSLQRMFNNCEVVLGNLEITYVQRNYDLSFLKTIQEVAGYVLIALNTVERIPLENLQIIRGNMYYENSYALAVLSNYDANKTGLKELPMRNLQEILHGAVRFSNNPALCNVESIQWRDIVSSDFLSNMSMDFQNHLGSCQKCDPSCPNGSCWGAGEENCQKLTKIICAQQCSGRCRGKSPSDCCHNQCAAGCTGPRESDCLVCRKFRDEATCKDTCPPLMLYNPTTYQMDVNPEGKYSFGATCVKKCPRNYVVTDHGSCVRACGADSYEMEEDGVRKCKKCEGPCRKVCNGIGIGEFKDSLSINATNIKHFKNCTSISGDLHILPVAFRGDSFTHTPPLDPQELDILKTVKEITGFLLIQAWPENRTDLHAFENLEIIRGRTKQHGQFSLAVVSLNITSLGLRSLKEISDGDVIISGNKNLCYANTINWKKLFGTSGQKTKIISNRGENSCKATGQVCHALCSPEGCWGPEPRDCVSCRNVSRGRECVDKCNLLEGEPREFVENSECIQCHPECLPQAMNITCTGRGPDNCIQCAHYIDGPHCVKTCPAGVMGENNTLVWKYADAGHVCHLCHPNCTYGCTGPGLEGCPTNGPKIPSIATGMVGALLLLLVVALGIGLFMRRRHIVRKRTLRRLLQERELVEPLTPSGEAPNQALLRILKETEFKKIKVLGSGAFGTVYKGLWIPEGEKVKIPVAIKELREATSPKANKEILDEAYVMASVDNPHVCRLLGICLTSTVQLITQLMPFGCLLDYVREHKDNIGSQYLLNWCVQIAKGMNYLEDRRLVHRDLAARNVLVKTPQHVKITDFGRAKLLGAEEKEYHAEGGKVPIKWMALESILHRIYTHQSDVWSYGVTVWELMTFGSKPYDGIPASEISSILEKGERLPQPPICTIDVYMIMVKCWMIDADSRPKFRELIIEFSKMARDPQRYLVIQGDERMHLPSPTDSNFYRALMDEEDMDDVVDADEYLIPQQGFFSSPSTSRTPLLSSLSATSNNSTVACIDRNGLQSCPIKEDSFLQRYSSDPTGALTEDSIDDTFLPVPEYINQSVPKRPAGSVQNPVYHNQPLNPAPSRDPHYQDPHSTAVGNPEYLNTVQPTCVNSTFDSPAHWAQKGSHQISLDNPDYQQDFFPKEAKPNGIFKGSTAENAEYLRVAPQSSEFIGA
Chain of RAC-alpha serine/threonine-protein kinase (Mus musculus) (P31750 whole entry): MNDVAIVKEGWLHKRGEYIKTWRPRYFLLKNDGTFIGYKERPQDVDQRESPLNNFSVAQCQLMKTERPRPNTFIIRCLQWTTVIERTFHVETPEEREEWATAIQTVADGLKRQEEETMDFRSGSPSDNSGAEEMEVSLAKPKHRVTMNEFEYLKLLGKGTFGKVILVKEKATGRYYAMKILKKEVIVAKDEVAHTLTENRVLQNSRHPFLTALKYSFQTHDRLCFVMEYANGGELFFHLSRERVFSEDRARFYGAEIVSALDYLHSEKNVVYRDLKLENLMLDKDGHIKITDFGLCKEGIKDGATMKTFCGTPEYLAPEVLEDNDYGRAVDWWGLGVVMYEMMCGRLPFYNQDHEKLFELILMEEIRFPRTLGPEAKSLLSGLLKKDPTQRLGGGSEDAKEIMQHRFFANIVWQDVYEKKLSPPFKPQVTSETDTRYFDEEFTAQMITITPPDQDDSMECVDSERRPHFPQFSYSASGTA

Consider `COc1cc2ncnc(Nc3cc(Cl)c(F)cc3O)c2cc1O`, for which the IC50 in experiment [1] came to 18.8 nM; in experiment [2] it was 1800 nM; with BaF3 [3] it was 120 nM; in the experiment with BaF3 [4] it was 5180 nM. Moreover, the ΔTm in experiment [5], in experiment [8] and in experiment [9] was greater than 3 °C each time. The inhibition entry in experiment [6] and in experiment [7] was “Active” each time.

In general, IC50 refers to the concentration that inhibits the measured activity by half. Low readings indicate greater potency in that assay, high ones weaker potency in that assay. Usually ΔTm stands for the shift of the melting midpoint relative to a reference.
